# Data reported in the supplement of paper PMC10307832.
# Legend:
# Test in all cases: relative viability (nuclei count vs DMSO), 5 days (fraction); higher = more cells survive
# NCI-H3122 = test system: NCI-H3122
# In short: (§1)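 Lung cancer cell lines were seeded in 1536-well plates and dosed by pin tool the next day, with either a single drug or a fixed anchor-drug dose combined with five library-drug doses (not always all listed) spaced in √10 steps. Five days later, one step fixed the cells and stained their nuclei (final 0.05% Triton X-100, 1% formaldehyde, 1 ug/ml Hoechst), and nuclei were counted on 4× images. Relative viability is the nuclei count in treated wells divided by the count in vehicle wells, and each value is the median of duplicate plates.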
# HCC-827 = test system: HCC-827
# In short: as §1
# NCI-H1734 = test system: NCI-H1734
# In short: as §1
# NCI-H1944 = test system: NCI-H1944
# In short: as §1
# HCC-15 = test system: HCC-15
# In short: as §1
# NCI-H2023 = test system: NCI-H2023
# In short: as §1
# ABC-1 = test system: ABC-1
# In short: as §1
# NCI-H2228 = test system: NCI-H2228
# In short: as §1
# HCC-44 = test system: HCC-44
# In short: as §1
# ChaGo-K-1 = test system: ChaGo-K-1
# In short: as §1
# SW 1573 = test system: SW 1573
# In short: as §1
# HCC-366 = test system: HCC-366
# In short: as §1
# NCI-H2085 = test system: NCI-H2085
# In short: as §1
# NCI-H2405 = test system: NCI-H2405
# In short: as §1
# LCLC-103H = test system: LCLC-103H
# In short: as §1
# NCI-H2347 = test system: NCI-H2347
# In short: as §1
# NCI-H2009 = test system: NCI-H2009
# In short: as §1
# NCI-H1355 = test system: NCI-H1355
# In short: as §1
# PC-14 = test system: PC-14
# In short: as §1
# NCI-H1793 = test system: NCI-H1793
# In short: as §1
# EPLC-272H = test system: EPLC-272H
# In short: as §1
# COR-L23 = test system: COR-L23
# In short: as §1
smiles,measurement,setting,value
CN1CCN(CCOc2cc(OC3CCOCC3)c3c(Nc4c(Cl)ccc5c4OCO5)ncnc3c2)CC1 [Saracatinib] + O=C(CCCCCCC(=O)Nc1ccccc1)NO [Vorinostat] (partner 1 µM),relative viability,NCI-H3122; first compound 0.02 µM,0.984
same,relative viability,NCI-H3122; first compound 0.2 µM,0.553
same,relative viability,NCI-H3122; first compound 0.6325 µM,0.891
same,relative viability,NCI-H3122; first compound 2 µM,0.788
same,relative viability,HCC-827; first compound 0.02 µM,0.926
same,relative viability,HCC-827; first compound 0.2 µM,0.643
same,relative viability,HCC-827; first compound 0.6325 µM,0.354
same,relative viability,HCC-827; first compound 2 µM,0.15
same,relative viability,NCI-H1734; first compound 0.02 µM,0.793
same,relative viability,NCI-H1734; first compound 0.6325 µM,0.837
same,relative viability,NCI-H1734; first compound 2 µM,0.652
same,relative viability,NCI-H1944; first compound 0.02 µM,0.54
same,relative viability,NCI-H1944; first compound 0.2 µM,0.542
same,relative viability,NCI-H1944; first compound 0.6325 µM,0.509
same,relative viability,NCI-H1944; first compound 2 µM,0.358
same,relative viability,HCC-15; first compound 0.02 µM,0.902
same,relative viability,HCC-15; first compound 0.2 µM,0.859
same,relative viability,HCC-15; first compound 0.6325 µM,0.931
same,relative viability,HCC-15; first compound 2 µM,0.861
same,relative viability,NCI-H2023; first compound 0.02 µM,0.652
same,relative viability,NCI-H2023; first compound 0.2 µM,0.591
same,relative viability,NCI-H2023; first compound 0.6325 µM,0.73
same,relative viability,NCI-H2023; first compound 2 µM,0.566
same,relative viability,ABC-1; first compound 0.02 µM,0.905
same,relative viability,ABC-1; first compound 0.2 µM,0.99
same,relative viability,ABC-1; first compound 0.6325 µM,1.37
same,relative viability,ABC-1; first compound 2 µM,0.857
same,relative viability,NCI-H2228; first compound 0.02 µM,0.8
same,relative viability,NCI-H2228; first compound 0.2 µM,0.6
same,relative viability,NCI-H2228; first compound 0.6325 µM,0.611
same,relative viability,NCI-H2228; first compound 2 µM,0.633
same,relative viability,HCC-44; first compound 0.02 µM,1.14
same,relative viability,HCC-44; first compound 0.2 µM,1.14
same,relative viability,HCC-44; first compound 0.6325 µM,1
same,relative viability,HCC-44; first compound 2 µM,1.19
same,relative viability,ChaGo-K-1; first compound 0.02 µM,0.797
same,relative viability,ChaGo-K-1; first compound 0.2 µM,0.55
same,relative viability,ChaGo-K-1; first compound 0.6325 µM,0.785
same,relative viability,ChaGo-K-1; first compound 2 µM,0.65
same,relative viability,SW 1573; first compound 0.02 µM,0.699
same,relative viability,SW 1573; first compound 0.2 µM,0.702
same,relative viability,SW 1573; first compound 0.6325 µM,0.664
same,relative viability,SW 1573; first compound 2 µM,0.47
same,relative viability,HCC-366; first compound 0.02 µM,0.4
same,relative viability,HCC-366; first compound 0.2 µM,0.135
same,relative viability,HCC-366; first compound 0.6325 µM,0.399
same,relative viability,HCC-366; first compound 2 µM,0.221
same,relative viability,NCI-H2085; first compound 0.02 µM,0.816
same,relative viability,NCI-H2085; first compound 0.2 µM,0.694
same,relative viability,NCI-H2085; first compound 0.6325 µM,0.896
same,relative viability,NCI-H2085; first compound 2 µM,0.815
same,relative viability,NCI-H2405; first compound 0.02 µM,0.89
same,relative viability,NCI-H2405; first compound 0.2 µM,0.788
same,relative viability,NCI-H2405; first compound 0.6325 µM,0.847
same,relative viability,NCI-H2405; first compound 2 µM,0.441
same,relative viability,LCLC-103H; first compound 0.02 µM,0.868
same,relative viability,LCLC-103H; first compound 0.2 µM,0.733
same,relative viability,LCLC-103H; first compound 0.6325 µM,0.846
same,relative viability,LCLC-103H; first compound 2 µM,0.762
same,relative viability,NCI-H2347; first compound 0.02 µM,0.558
same,relative viability,NCI-H2347; first compound 0.2 µM,0.413
same,relative viability,NCI-H2347; first compound 0.6325 µM,0.719
same,relative viability,NCI-H2347; first compound 2 µM,0.622
same,relative viability,NCI-H2009; first compound 0.02 µM,0.754
same,relative viability,NCI-H2009; first compound 0.2 µM,0.653
same,relative viability,NCI-H2009; first compound 0.6325 µM,0.677
same,relative viability,NCI-H2009; first compound 2 µM,0.744
same,relative viability,NCI-H1355; first compound 0.02 µM,0.668
same,relative viability,NCI-H1355; first compound 0.2 µM,0.62
same,relative viability,NCI-H1355; first compound 0.6325 µM,0.7
same,relative viability,NCI-H1355; first compound 2 µM,0.587
same,relative viability,PC-14; first compound 0.02 µM,0.759
same,relative viability,PC-14; first compound 0.2 µM,0.247
same,relative viability,PC-14; first compound 0.6325 µM,0.163
same,relative viability,PC-14; first compound 2 µM,0.0854
same,relative viability,NCI-H1793; first compound 0.02 µM,0.878
same,relative viability,NCI-H1793; first compound 0.2 µM,0.482
same,relative viability,NCI-H1793; first compound 0.6325 µM,0.842
same,relative viability,NCI-H1793; first compound 2 µM,0.601
same,relative viability,EPLC-272H; first compound 0.02 µM,0.306
same,relative viability,EPLC-272H; first compound 0.2 µM,0.562
same,relative viability,EPLC-272H; first compound 0.6325 µM,0.63
same,relative viability,EPLC-272H; first compound 2 µM,0.424
same,relative viability,COR-L23; first compound 0.02 µM,0.361
same,relative viability,COR-L23; first compound 0.2 µM,0.41
same,relative viability,COR-L23; first compound 0.6325 µM,0.469
same,relative viability,COR-L23; first compound 2 µM,0.406
